Reference: patent US20240374557A1, “BETA ADRENERGIC RECEPTOR COMPOSITIONS AND METHODS OF USE THEREOF” (THE BOARD OF REGENTS OF THE UNIVERSITY OF TEXAS SYSTEM, priority 2021, published 2024)
pEC50: −log10 of the molar value.

Key:
[1] = test system: ADRB3; conditions: cited from earlier work
[2] = test system: Ad-Adrb1KO mice and littermate controls; assay: Acute CL-316243 injection: body weight, blood glucose, BAT mass and BAT histology; type: in vivo
Experimental: Physiological relevance of crosstalk between ADRB1 and ADRB3 in adipocytes was assessed. […] Four hours after CL-316243 injection, mice were sacrificed and BAT depots were dissected.
Treatment with CL 316, 243.
Histology. […] Samples were then dehydrated, embedded in paraffin, and cut into […] sections. Sections were stained with hematoxylin and eosin (H&E) to perform general histology. All pictures were taken at a magnification of 20× on a Zeiss Axioskop 2 microscope connected to a digital camera (AxioCam; Zeiss, Thornwood, NY). Only the sharpness, contrast, and brightness were adjusted.

[3] = test system: Ad-Adrb1KO mice and littermate controls; assay: Co-administration of CL-316243 with insulin or glucose: blood glucose, plasma insulin, NEFA; conditions: for increase in plasma insulin levels: CL-316243 0.1 mg/kg co-administered with glucose, 30 minutes after vs before
Experimental: (§3) Treatment with CL 316, 243. Mice were fasted for 2 hours (0800-1000) and then given an injection of the ADRB3 agonist CL 316,243 (“CL”, 0.001-1 mg/kg) or vehicle (saline). In some cohorts, human recombinant insulin (Eli Lilly) or D-glucose (Sigma 49163-100ML) was co-administrated with CL.
Evaluation of insulin and NEFA levels. Blood from tail vein was collected before and 30 minutes after co-administration of CL with D-glucose into EDTA tubes. Plasma was isolated by centrifugation (4000 g×10 minutes at 4° C.). Plasma insulin (Mouse Ultrasensitive Insulin ELISA, ALPCO, 80-INSMSU-E01) and NEFA (FUJIFILM Wako Diagnostics-NEFA Reagent, 999-34691, 995-34791, 991-34891, 993-35191) levels were measured following manufacturer recommendations.

[4] = test system: Adrb1, Ppargc1a and Ucp1 mRNA expression in eWAT, iWAT and BAT; assay: Quantitative real-time PCR of adipose depots after CL-316243 injection; type: in vivo, mice; conditions: CL-316243 0.1 mg/kg
Experimental: Quantitative real-time PCR. […] Total mRNA was isolated from eWAT, iWAT and interscapular BAT using the Aurum™ Total RNA Fatty and Fibrous Tissue Kit (Bio-Rad, 732-6830). RNA concentration was estimated from absorbance at 260 nm. cDNA synthesis was performed using the iScript Advanced cDNA Synthesis Kit (Bio-Rad, 172-5038). mRNA extraction and cDNA synthesis were performed following the manufacturer's instructions. cDNA was diluted in DNase-free water before quantification by real-time PCR. Relative quantification of gene expression was performed on diluted cDNA in duplicate samples using a CFX384 Touch™ real-time PCR (Bio-Rad). Fold differences in targeted mRNA expression were calculated using the 2-delta cycle threshold method and data were normalized to beta-microglobulin (B2m) expression. TaqMan gene expression assays for Adrb1 (Mm00431701_s1), B2m (Mm00437762_m1), Ppargc1a (Mm01208835_m1), and Ucp1 (Mm01244861_m1) were purchased from ThermoFisher Scientific.

[5] = test system: Ad-Adrb1KO mice and littermate controls; assay: Blood glucose over 60 minutes after CL-316243 dose range; conditions: for reducing glycemia: 0.001 mg/kg
Experimental: Tail vein blood glucose levels were then monitored using a glucometer (Bayer's Contour Blood Glucose Monitoring System.
as §3

[6] = test system: C57BL/6N mice on 42% high fat diet; assay: 4-week treatment of high fat diet fed mice: body weight, body composition, cholesterol, oral glucose tolerance; type: in vivo; conditions: compared to placebo
Experimental: (§1) In brief, three cohorts of male C57BL/6N mice, including a total of 100 mice, were used in these studies. Five-week-old mice were placed on a 42% high fat diet for 4 weeks. The treatments were provided for 4 weeks, during which time mice were maintained on the 42% high fat diet.
(§2) Mirabegron, an ADRB3 agonist, was administered at an 8 mg/kg daily dose. Atenolol is an ADRB1 antagonist and was administered to the mice at, on average, 60 mg/kg per day. Mirabegron or its buffer (5% PEG 400; placebo) were administered to the mice daily by gavage for 4 weeks. Mice were also given ad libitum access to a water bottle or a water bottle containing atenolol. […] Oral glucose tolerance testing was performed on overnight fasted mice administered 5 μL 60% glucose solution per g BW using a gavage tube; blood glucose levels were determined with a glucometer using blood from tail nicks at times 0, 15, 30, 60 and 120 minutes. Blood pressure measurements were obtained using a CODA-HT8 High Throughput Noninvasive Blood Pressure system with 8 activated channels for use with mice and rats from Kent Scientific. Methods and statistical analysis were performed as described above.

[7] = test system: C57BL/6N mice on 42% high fat diet; conditions: 4 weeks, compared to placebo; mirabegron 8 mg/kg daily, atenolol 60 mg/kg per day
Experimental: as §1, §2

[8] = CL-316243 0.1 mg/kg, Ad-Adrb1KO mice
[9] = every adipose depot, independent of the genotype
[10] = 4 weeks, mirabegron 8 mg/kg daily gavage, atenolol 60 mg/kg per day in water

C[C@H](Cc1ccc2c(c1)OC(C(=O)[O-])(C(=O)[O-])O2)NC[C@H](O)c1cccc(Cl)c1.[Na+].[Na+] [CL-316243, 5-[(2R)-2-[[(2R)-2-(3-Chlorophenyl)-2-hydroxyethyl]amino]propyl]-1,3-benzodioxole-2,2-dicarboxylic acid disodium salt]
selectivity for ADRB3 over ADRB1 and ADRB2 [1]: over 10000 fold | pEC50 ([1]; read-out: EC50 (ADRB3 agonist)): 8.52 | BAT mass [2, 8]: comparable to CL-316243-treated littermates | CL-316243-induced mobilization of intracellular triglycerides in BAT [2, 8]: markedly improved | lipid droplets in H&E-stained BAT ([2]; CL-316243 0.1 mg/kg, mice lacking Adrb1 in adipocytes): near-complete depletion | weight of the mice ([2]; acute CL-316243 0.1 mg/kg, Ad-Adrb1KO mice and littermate controls): did not significantly change | efficiency to reduce blood glucose levels (treatment x genotype) ([2]; acute CL-316243 0.1 mg/kg, Ad-Adrb1KO vs littermate controls): significant interaction | increase in plasma insulin levels ([3]; Ad-Adrb1KO mice): 43 fold | increase in plasma insulin levels ([3]; littermate controls): 12 fold | glucose clearance ([3]; CL-316243 0.1 mg/kg co-administrated with glucose, Ad-Adrb1KO mice): drastically improved | insulin sensitivity ([3]; CL-316243 0.1 mg/kg in combination with insulin, Ad-Adrb1KO mice compared to control littermates): slight but significant improvement | plasma NEFA levels between Ad-Adrb1KO mice and littermate controls ([3]; CL-316243 co-administrated with glucose): no difference | Adrb1 mRNA expression (significantly reduced or not) ([4]; BAT, littermate controls): not | Adrb1 mRNA expression ([4]; eWAT, littermate controls): significantly reduced | Ppargc1a mRNA expression [4, 9]: increase | Ucp1 mRNA expression [4, 9]: increase | Adrb1 mRNA expression (significantly reduced or not) ([4]; iWAT, littermate controls): not in iWAT | reducing glycemia ([5]; Ad-Adrb1KO mice): still effective | reducing glycemia ([5]; littermate controls): not littermate controls | blood glucose ([5]; both genotypes, even at low dose of 0.01 mg/kg, 60-minute period): glucose lowering effect

Nc1nc(CC(=O)Nc2ccc(CCNC[C@H](O)c3ccccc3)cc2)cs1 [mirabegron]
LDL cholesterol [6, 10]: significant decreases | epididymal fat mass [6, 10]: significant decreases | total body weight [6, 10]: significant decreases | total cholesterol [6, 10]: significant decreases | total fat mass [6, 10]: significant decreases | glucose tolerance (blood glucose area under the curve) ([6]; oral glucose tolerance test after 4 weeks): significant improvements | diastolic blood pressure (DBP) [7]: elevated | mean arterial blood pressure (MBP) [7]: elevated | systolic blood pressure (SBP) [7]: elevated
